Measured values: article PMC12497685, “Anticoronavirus Isoquinoline Alkaloids: Unraveling the Secrets of Their Structure–Activity Relationship” (Influenza and Other Respiratory Viruses, 2025)
“And” between values parts separate entries of the source, which are not always exact repeats. Equal values may be shown once. Read-outs that look alike come from different tables or passages of the source.

How the values were obtained:
HCoV‐229E = assay: microbe, parasite or virus in culture; type: cell-based; conditions: n = 1; for inhibition at 10 µM: Human coronavirus 229E, Huh-7, read-out: Protective effects HCoV-229E %
Huh7 cells = conditions: n = 1
[1] = at 10 μM, compared with vehicle control, Huh7 cells
[2] = at 10 μM, compared with vehicle control
[3] = tested at 1 μM due to low solubility in DMSO

Compound | inhibition at 10 µM (HCoV‐229E; [1]) [%] | Cytotoxicity to the host Huh7 cells % (Huh7 cells; [2]) | Protective effects HCoV-229E % (HCoV‐229E; [1]) | Protective effects HCoV-229E % (HCoV‐229E; [3]) | Cytotoxicity to the host Huh7 cells % (Huh7 cells; [3])
O=C1c2ccccc2-c2c3c(cc4ccnc1c24)OCO3 [Compound 62, liriodenine] | < 20 | — (Non-toxic (insignificant cytotoxic effects, below 20%)) | – | – | –
COc1cc2c(cc1O)[C@]1(Cc3ccc4c(c3C1=O)OCO4)N(C)CC2 [Compound 42, (+)‐parfumine] | – | — (Non-toxic (insignificant cytotoxic effects, below 20%)) | — (Not active (insignificant protective effects below 20%)) | – | –
COC1=C[C@@]23CCN(C)[C@@H](Cc4cc(O)c(OC)cc42)C3=CC1=O [Compound 60, (−)‐pallidine] | – | — (Non-toxic (insignificant cytotoxic effects, below 20%)) | — (Not active (insignificant protective effects below 20%)) | – | –
COC1=CC=C2[C@H]3Cc4ccc(OC)c5c4[C@@]2(CCN3C)[C@H]1O5 [Compound 54, thebaine] | < 20 | — (Non-toxic (insignificant cytotoxic effects, below 20%)) | – | – | –
O[C@@H]1CC=C2CCN3Cc4cc5c(cc4[C@H]1[C@@H]23)OCO5 [Compound 15, (−)‐caranine] | – | — (Non-toxic (insignificant cytotoxic effects, below 20%)) | — (Not active (insignificant protective effects below 20%)) | – | –
CCOC1c2c(ccc3c2OCO3)-c2ccc3cc4c(cc3c2N1C)OCO4 (stereo not shown) [Compound 51, 6‐ethoxydihydrosanguinarine] | – | 90% and > 80% | — (Not active (insignificant protective effects below 20%)) | – | –
COc1cc2c(cc1OC)[C@H]1[C@H]3C(=CC[C@H]1OC2=O)CCN3C [Compound 10, homolycorine] | 40 | — (Non-toxic (insignificant cytotoxic effects, below 20%)) | – | – | –
COc1ccc(Cc2nccc3cc(OC)c(OC)cc23)cc1OC [Compound 53, papaverine] | < 20 | 20% | – | – | –
CN1CCc2cc3c(cc2[C@H]1[C@@H]1OC(=O)c2c1ccc1c2OCO1)OCO3 [Compound 46, (+)‐bicuculline] | – | — (Non-toxic (insignificant cytotoxic effects, below 20%)) | — (Not active (insignificant protective effects below 20%)) | – | –
COc1cc2c(cc1OC)C1Cc3ccc(OC)c(O)c3C(C2)N1C (stereo not drawn) [Compound 24, (−)‐platycerine] | – | — (Non-toxic (insignificant cytotoxic effects, below 20%)) | — (Not active (insignificant protective effects below 20%)) | – | –
CN1CCC2=CC[C@H]3OC(=O)c4cc5c(cc4[C@H]3[C@@H]21)OCO5 [Compound 11, masonine] | – | — (Non-toxic (insignificant cytotoxic effects, below 20%)) | — (Not active (insignificant protective effects below 20%)) | – | –
COc1ccc2c(c1O)-c1c3c(cc4c1[C@H](C2)N(C)CC4)OCO3 [Compound 28, (+)‐bulbocapnine] | – | — (Non-toxic (insignificant cytotoxic effects, below 20%)) | — (Not active (insignificant protective effects below 20%)) | – | –
COc1cc2c(cc1OC)C(=O)Cc1ccc3c(c1CN(C)CC2)OCO3 [Compound 45, cryptopine] | – | — (Non-toxic (insignificant cytotoxic effects, below 20%)) | — (Not active (insignificant protective effects below 20%)) | – | –
COc1cc2c(cc1O)[C@@H]1Cc3ccc(OC)c(O)c3CN1CC2 [Compound 33, (−)‐scoulerine] | – | 40% and 35%–40% | — (Not active (insignificant protective effects below 20%)) | – | –
COc1ccc2c(c1OC)CN(C)CCc1cc3c(cc1C(=O)C2)OCO3 [Compound 29, Allocryptopine] | < 20 | — (Non-toxic (insignificant cytotoxic effects, below 20%)) | – | – | –
COc1cc2c(cc1OC)[C@@H](O)O[C@@H]1CC=C3CCN(C)[C@H]3[C@H]21 [Compound 7, lycorenine] | – | 20% | — (Not active (insignificant protective effects below 20%)) | – | –
COc1cc2c(cc1OC)C1Cc3cc(OC)c(OC)cc3[C@H](C2)N1C [Compound 23, argemonine] | – | — (Non-toxic (insignificant cytotoxic effects, below 20%)) | — (Not active (insignificant protective effects below 20%)) | – | –
CN1CCc2cc3c(cc2[C@]12Cc1ccc4c(c1C2=O)OCO4)OCO3 [Compound 41, (+)‐fumariline] | – | — (Non-toxic (insignificant cytotoxic effects, below 20%)) | — (Not active (insignificant protective effects below 20%)) | – | –
c1cc2c(c3c1C[C@H]1c4cc5c(cc4CCN1C3)OCO5)OCO2 [Compound 49, (−)‐stylopine] | – | — (Non-toxic (insignificant cytotoxic effects, below 20%)) | — (Not active (insignificant protective effects below 20%)) | – | –
CO[C@@H]1C=C[C@@]23c4cc5c(cc4CO[C@]2(O)CN(C)[C@H]3C1)OCO5 [Compound 5, (+)‐tazettine] | – | — (Non-toxic (insignificant cytotoxic effects, below 20%)) | — (Not active (insignificant protective effects below 20%)) | – | –
COc1ccc2c(c1OC)CN1CCc3cc4c(cc3C1C2)OCO4 (stereo not drawn) [Compound 26, (+)‐canadine] | – | — (Non-toxic (insignificant cytotoxic effects, below 20%)) | — (Not active (insignificant protective effects below 20%)) | – | –
COc1cc2c(cc1O)C1(Cc3ccc4c(c3C1O)OCO4)N(C)CC2 (stereo not drawn) [Compound 40, (−)‐fumaritine] | – | – | – | — (Not active (insignificant protective effects below 20%)) | — (Non-toxic (insignificant cytotoxic effects, below 20%))
COc1ccc2c(c1O)-c1c(OC)c(OC)cc3c1[C@H](C2)NCC3 [Compound 57, norisocoridine] | – | — (Non-toxic (insignificant cytotoxic effects, below 20%)) | — (Not active (insignificant protective effects below 20%)) | – | –
COc1cc2c(cc1Oc1c3c(cc(OC)c1OC)CCN(C)C3)C(Cc1ccc(O)cc1)N(C)CC2 (stereo not drawn) [Compound 20, (−)‐muraricine] | – | — (Non-toxic (insignificant cytotoxic effects, below 20%)) | 50% | – | –
O[C@H]1[C@H]2c3cc4c(cc3CN3CCC(=C[C@@H]1O)[C@H]23)OCO4 [Compound 9, lycorine] | < 20 | — (Non-toxic (insignificant cytotoxic effects, below 20%)) | – | – | –
COc1cc2c(cc1OC)-c1c(OC)c(OC)cc3c1[C@H](C2)N(C)CC3 [Compound 47, glaucine] | < 20 | — (Non-toxic (insignificant cytotoxic effects, below 20%)) | – | – | –
COc1cc2c(cc1OC)[C@@]1(Cc3ccc4c(c3[C@@H]1O)OCO4)N(C)CC2 [Compound 38, (−)‐fumaricine] | – | — (Non-toxic (insignificant cytotoxic effects, below 20%)) | — (Not active (insignificant protective effects below 20%)) | – | –
(+)‐thalictricavine [Compound 27] | – | – | — (Not active (insignificant protective effects below 20%)) | – | –
